Test results as given in patent US11236124B2, “Method and composition for hydrolyzing eggshell membrane” (EGGNOVO S.L., priority 2017, dated 2022).
Values belong to the molecule of their own block, whether it stands above or below them.

Assays:
Format in all cases: biochemical
[1] = system: eggshell membrane; test: Eggshell membrane solubilization with different enzymes and reducing agents (Example 1); settings: 10 mg eggshell membrane/ml
Description: A solution for solubilizing eggshell membrane was prepared at a ratio of 10 mg of eggshell membrane/ml of solution. Said solution comprised a denaturing agent, and more specifically a denaturing agent having detergent properties and an amphiphilic nature such as SDS, at a concentration of 0.5-5%. The solution also comprised a reducing agent, for which solutions of the following reducing agents were prepared at a concentration of 100 mM-1 M: sodium sulfite (Na2SO3), sodium hydrosulfite (Na2S2O4), sodium hydroxymethanesulfinate (HOCH2SO2Na), sodium metabisulfite (Na2S2O5), and dithiothreitol (DTT); these solutions were tested successively. Finally, a suitable buffer was added for maintaining the pH depending on the enzyme that was going to be used, having a concentration of 25-50 mM. Once the pH was adjusted with a pH-meter to the optimum pH for each enzyme, the enzyme previously prepared according to the manufacturer's specification at a concentration of 1% was added to the solution, such that the final concentration of the enzyme with respect to the total solution was 0.05-0.5%. The same was performed with each of the enzymes used in the present example.
Once all the components were mixed and homogenized, said mixture was incubated at the maximum temperature of activity of each enzyme. The level of hydrolysis was assessed after 1, 12, and 24 hours of incubation and the results were compared against a control that is performed and only differs from the test solutions by the absence of enzyme.

[2] = system: eggshell membrane; test: Testing of denaturing agents for eggshell membrane dissolution; settings: denaturing agent used for eggshell membrane hydrolysis
[3] = system: eggshell membrane; test: Hydrolyzation of different amounts of eggshell membrane with 0.1% papain (Example 3); settings: papain 0.1%, 12 h, 100 mM Na2S2O5, SDS, pH 6.2, 38° C.
Description: Specifically, different solutions with different amounts of eggshell membrane were prepared such that final concentrations with respect to the total solution volume of 20, 30, 40, 50, 70, 100, and 150 mg of eggshell membrane/ml of solution were obtained. The solution contained 100 mM sodium metabisulfite (Na2S2O5), 0.5-5% SDS in 50 mM HEPES buffer adjusted to pH 6.2 with a pH-meter. 1% papain previously activated in a 0.15 M sodium chloride solution was then added such that the concentration of the enzyme with respect to the final volume of the mixture was 0.05-0.5%. Once all the components were mixed and homogenized, said mixture was incubated at 38° C. for 12 h and the results were compared against a control that is performed and only differs from the test solutions by the absence of enzyme. A clear, amber-colored solution was obtained, the color of which intensifies as the membrane concentration increases, in addition to the presence of a precipitate increasing, which indicates a lower level of hydrolysis.

[4] = system: eggshell membrane; test: Eggshell membrane solubilization with papain at different Na2S2O5 concentrations, with or without SDS (Example 2); settings: 38° C., 12 h, 10 mg membrane/ml
Description: Specifically, a solution for solubilizing 10 mg of eggshell membrane/ml of solution was prepared. Said solution only contained 100 mM sodium metabisulfite (Na2S2O5) (1). Three other similar solutions were prepared with an increasing order of concentration of Na2S2O5, i.e., 5 mM (2), 50 mM (3), and 100 mM (4), but in this case they contained 0.5-5% SDS in 50 mM HEPES buffer adjusted to pH 6.2 with a pH-meter. It was verified that the optimum range of sodium metabisulfite (Na2S2O5) for the present invention is between 50 and 150 mM. Papain previously activated in a 0.15 M sodium chloride solution was added such that the final concentration of the enzyme in the mixture was 0.05-0.5%. Once all the components were mixed and homogenized, said mixture was incubated at 38° C. for 12 h. The level of hydrolysis was evaluated after 12 hours of incubation and the results were compared against a control that is performed and only differs from the test solutions by the absence of enzyme.

[5] = SDS + Na2S2O4, 24 h, pH optimum of each enzyme
[6] = SDS + Na2SO3, 24 h, pH optimum of each enzyme
[7] = SDS + DTT, 24 h, pH optimum of each enzyme
[8] = SDS + HOCH2SO2Na, 24 h, pH optimum of each enzyme
[9] = SDS + Na2S2O5, 24 h, pH optimum of each enzyme

Molecule: NC(N)=O [urea]
dissolution results with the denaturing agent [2]: without obtaining satisfactory dissolution results

Molecule: CCCCCCCCCCCCOS(=O)(=O)[O-].[Na+] [SDS, sodium lauryl sulfate]
dissolution results with the denaturing agent [2]: excellent results

Molecule: Pepsin
% solubilized [1, 7]: 0%
% solubilized [1, 8]: 0%
% solubilized [1, 5]: 0%
% solubilized [1, 9]: 0%
% solubilized [1, 6]: 0%

Continued, in another order:

% solubilized ([1]; SDS + DTT, 1 h, pH 6.2): 100%
% solubilized ([1]; SDS + HOCH2SO2Na, 12 h, pH 6.2): 100%
% solubilized [1, 5]: 0%
% solubilized ([1]; SDS + Na2S2O5, 1 h, pH 6.2): 100%
% solubilized [1, 6]: 0%
Molecule: Bromelain

% solubilized [1, 7]: 50%
% solubilized [1, 8]: 0%
% solubilized [1, 5]: 0%
% solubilized [1, 9]: 50%
% solubilized [1, 6]: 0%
Molecule: Ficin

% solubilized ([1]; SDS + DTT, 1 h, pH 6.2): 100%
% solubilized ([1]; SDS + HOCH2SO2Na, 12 h, pH 6.2): 100%
% solubilized [1, 5]: 0%
% solubilized ([1]; SDS + Na2S2O5, 1 h, pH 6.2): 100%
% solubilized [1, 6]: 0%
B1: Papain: protease of plant origin with endopeptidase activity from the group of cysteine proteases (protein, UniProt P00784 134-345, looked up)
Papain: IPEYVDWRQKGAVTPVKNQGSCGSCWAFSAVVTIEGIIKIRTGNLNEYSEQELLDCDRRSYGCNGGYPWSALQLVAQYGIHYRNTYPYEGVQRYCRSREKGPYAAKTDGVRQVQPYNEGALLYSIANQPVSVVLEAAGKDFQLYRGGIFVGPCGNKVDHAVAAVGYGPNYILIKNSWGTGWGENGYIRIKRGTGNSYGVCGLYTSSFYPVKN
% of hydrolyzation ([3]; membrane 20 mg/ml): 100%
% of hydrolyzation ([3]; membrane 30 mg/ml): 100%
% of hydrolyzation ([3]; membrane 50 mg/ml): 100%
% of hydrolyzation ([3]; membrane 70 mg/ml): 100%
% of hydrolyzation ([3]; membrane 100 mg/ml): 90%
% of hydrolyzation ([3]; membrane 150 mg/ml): 80%
% solubilized ([4]; (1) Na2S2O5 100 mM, no SDS): 0%
% solubilized ([4]; (2) SDS + Na2S2O5 5 mM, pH 6.2): 0%
% solubilized ([4]; (3) SDS + Na2S2O5 50 mM, pH 6.2): 70%
% solubilized ([4]; (4) SDS + Na2S2O5 100 mM, pH 6.2): 100%
